Data on twelve sequences can be found in patent US10138271B2, “Native and agonist CTL epitopes of the MUC1 tumor antigen” (The United States of America, as represented by the …, priority 2012, dated 2018).

The test system of assay [1] is MUC1-C-specific T-cell lines. Kind of assay: IFN-γ release by MUC1-C-specific T-cell lines stimulated with peptide-pulsed autologous B cells (ELISA). In kind it is cell-based, human. As to conditions: for IFN-γ: T-cell line generated with and stimulated by the same peptide, APC:T 2:1, 24 hour supernatant; for IFN-γ production by agonist peptide-specific T-cell line, agonist versus native peptide: at each peptide concentration, FIG. 1A-C. The protocol:
Supernatants of T cells stimulated for 24 h with peptide-pulsed autologous DCs or autologous EBV-transformed B cells in IL-2-free medium at various peptide concentrations were screened for secretion of IFN-γ by ELISA kit (BioSource International, Camarillo, Calif.). Results were expressed in pg/mL.
To evaluate the specificity of these T-cell lines, an IFN-γ release assay was performed using irradiated autologous B cells pulsed with the corresponding peptide. T cells were stimulated with irradiated autologous B cells pulsed with corresponding peptide at an APC:T cell ratio of 2:1. T cells were used at a concentration of 5×10^5/mL. 24 hour culture supernatants were collected and screened for secretion of IFN-γ. T-1-P1172(1Y), T-1-P1177(10V), and T-2-P1240(1Y) cell lines produced higher levels of IFN-γ compared to T-cell lines generated using corresponding native peptides (Table 2).
Studies were then conducted to compare the ability of the native peptides and the agonist peptides, at various concentrations, to activate the agonist peptide-specific T cells.
An additional T-cell line was then established from the PBMCs of another patient (patient 3) with colon cancer from the same clinical trial described above, using P1177 and P1177(10V), designated T-3-P1177 and T-3-P1177(10V), respectively.
(An ELISA detects its analyte on a solid surface through an enzyme-linked reagent.)

In assay [2] the test system is T-VNTR-5 T cell line. Nature of the assay: IFN-γ production by VNTR-5-specific T cell line stimulated with agonist or native peptide. In kind it is cell-based, human. Conditions: APC:T 3:1, 24 hours. The protocol:
(§1) T-VNTR-3 (VNTR-3 agonist peptide-specific T cell line) and T-VNTR-5 (VNTR-5 agonist peptide-specific T cell line) were separately cultured at a concentration of 1×10^5 cells/mL. The ratio of APC:T cells was 3:1. The agonist or native peptides were used at various concentrations (see Tables 14 and 15). The supernatents were collected after 24 hours, and the amount of IFN-γ was determined. The VNTR-3- and VNTR-5-specific T cell lines stimulated with agonist peptides produced higher levels of IFN-γ as compared to stimulation with native peptides (see Tables 14 and 15).

Assay [3] deals with T1, HLA-A2 molecules (Homo sapiens, UniProt P04439, D140Y/D185E/D98H/E176V/E277Q/G131W/G231S/I119V/I121R/I166T/I218V/L300P/L318F/N151K/N90K/P208A/P217A/Q86G/Q94H/R138H/R169H/T345S).
T1 construct: endogenous in cells; host or cells: T2 / T2A2 cells (174CEM-T2, transport deletion mutant)
Kind of assay: Peptide binding to HLA-A2: upregulation of HLA-A2 expression on T2/T2A2 cells by flow cytometry. Conditions: for T2 Binding (mean fluorescence intensity): peptide 12.5 μg/mL; for T2A2 Binding (mean fluorescence intensity): peptide 25 μg/mL. The protocol:
Single-color flow cytometric analysis has been previously described in Guadagni et al., Cancer Res., 50: 6248-6255 (1990). Briefly, cells were washed 3 times with cold Ca2^+- and Mg2^+-free Dulbecco's phosphate-buffered saline (PBS), and then stained for 1 h at 4° C. using FITC-conjugated monoclonal antibodies anti-HLA-A2,28 (One Lambda, Inc., Canoga Park, Calif.), anti-CD3, anti-CD4, and anti-CD8 (BD Biosciences, San Jose, Calif.). Mouse IgG2a, k FITC (BD Biosciences) was used as isotype control. The cells were then washed 3 times with cold Ca2^+- and Mg2^+-free PBS, resuspended in the same buffer, and immediately analyzed using a FACScan (Becton Dickinson, Franklin Lakes, N.J.) and CellQuest software (BD Biosciences). Results were generated from data gathered from 10,000 live cells and expressed as percent-positive cells and mean fluorescence intensity (MFI). The MFI value was collected in log scale and used to express levels of fluorescence determined by measuring the average for all cells in the fluorescence dot plot.
(In general: A flow cytometer gives signals particle by particle.)

Assay [4] has as its system T-VNTR-3 T cell line. Kind of assay: IFN-γ production by VNTR-3-specific T cell line stimulated with agonist or native peptide. In kind it is cell-based, human. As to conditions: APC:T 3:1, 24 hours. The protocol: as §1
For assay [5], the target named is T1, HLA-A2 molecules. Kind of assay: Stability of peptide/HLA-A2 complexes (percentage of remaining complexes over time). In kind it is binding. Conditions: time points 0, 2, 4, 6, 8, 10 h. The protocol: The stability of the peptide/HLA-A2 complexes of the analogs and native peptides were analyzed by determining the percentage of the remaining complexes on HLA-A2 molecules at different time points (0, 2, 4, 6, 8, and 10 h).
The stability of the peptide/HLA-A2 complexes of the analogs and native peptides was analyzed by determining the percentage of the remaining complexes on HLA-A2 molecules at different time points (0, 2, 4, 6, 8, and 10 h).

The sequence ALAIVYLIAL [Peptide P1172] came in with an IFN-γ in assay [1] of 158.3 pg/mL.
Turning to APDTRPAPG [VNTR-4], the IFN-γ came to 19.8 pg/mL in assay [2] (peptide 1.56 μg/mL); 53.2 pg/mL in assay [2] (peptide 3.13 μg/mL); 63.1 pg/mL in assay [2] (peptide 6.25 μg/mL); 109.3 pg/mL in assay [2] (peptide 12.5 μg/mL); 117.9 pg/mL in assay [2] (peptide 25 μg/mL).
As to GLFDEYLEMV [NGEP (P703)], in assay [3], the “T2 Binding (mean fluorescence intensity)” value is given as 481.93 MFI and the “T2A2 Binding (mean fluorescence intensity)” value came out at 485.3 MFI.
The matching figures for HLFGYSWYK [CAP-7]: 109.1 MFI and 83.8 MFI.
SLSYTNPAV [Peptide P1240] registered an IFN-γ in assay [1] of 437.3 pg/mL.
Take STAPPAHGV [VNTR-2]: the IFN-γ turned out to be 29.0 pg/mL in assay [4] (peptide 1.56 μg/mL); 75.8 pg/mL in assay [4] (peptide 3.13 μg/mL); 127.0 pg/mL in assay [4] (peptide 6.25 μg/mL); 203.0 pg/mL in assay [4] (peptide 12.5 μg/mL); 261.0 pg/mL in assay [4] (peptide 25 μg/mL).
In the case of YLAIVYLIAL [P1172(1Y)], in assay [1], the IFN-γ is 605.0 pg/mL and the “IFN-γ production by agonist peptide-specific T-cell line, agonist versus native peptide” value (shortened to “IFN-γ production … agonist versus native peptide”) is recorded as “greatest level of IFN-γ production”. Further, the “Stability of peptide/HLA-A2 complexes, analog versus native peptide” value in assay [5] is “No differences”.
YLAPPAHGV [VNTR-3]: in assay [5], the “Stability of peptide/HLA-A2 complexes, analog versus native peptide” value is “greater avidity for class I molecules than the native peptides”. The IFN-γ in assay [4] (peptide 1.56 μg/mL) is on record as 304.9 pg/mL; in assay [4] (peptide 3.13 μg/mL) it was 457.6 pg/mL; in assay [4] (peptide 6.25 μg/mL) it was 685.3 pg/mL; in assay [4] (peptide 12.5 μg/mL) it was 766.1 pg/mL; in assay [4] (peptide 25 μg/mL), 771.5 pg/mL.
Take YLDTRPAPV [VNTR-5]: the “Stability of peptide/HLA-A2 complexes, analog versus native peptide” value in assay [5] is “greater avidity for class I molecules than the native peptides”. Also, the IFN-γ in assay [2] (peptide 1.56 μg/mL) worked out at 205.1 pg/mL; in assay [2] (peptide 3.13 μg/mL) it was 322.0 pg/mL; in assay [2] (peptide 6.25 μg/mL) it was 452.9 pg/mL; in assay [2] (peptide 12.5 μg/mL), 496.2 pg/mL; in assay [2] (peptide 25 μg/mL), 543.7 pg/mL.
In assay [1], YLIALAVCQC [Peptide P1177] came in with an IFN-γ of 666.4 pg/mL.
Take YLIALAVCQV [P1177(10V)]: in assay [1], the IFN-γ is on record as >1,000 pg/mL and the “IFN-γ production … agonist versus native peptide” value was “greatest level of IFN-γ production”. In assay [5], the “Stability of peptide/HLA-A2 complexes, analog versus native peptide” value is given as “greater avidity for class I molecules than the native peptide P1177 at each time point”.
As for YLSYTNPAV [P1240(1Y)], in assay [1], the IFN-γ is listed as >1,000 pg/mL and the “IFN-γ production … agonist versus native peptide” value is “greatest level of IFN-γ production”. In addition, the “Stability of peptide/HLA-A2 complexes, analog versus native peptide” value in assay [5] is reported as “No differences”.
